The record followed here is patent EP4810052A2, “HCRHR2 SELECTIVE POLYPEPTIDES” (Gubra A/S, priority 2023, dated 2026).

pEC50: −log10 of the molar value. Like-named read-outs stand apart in the source and are kept apart here. Starred links: 1 amine or outer side, 2 acyl side, 3 side chain; linkers in the order of their positions; H or OH if unused. Non-standard residues stand in square brackets, D forms with d. Residues, ends and D or L forms follow the SMILES beside them. Groups on a side chain read outwards from the residue. *: point of attachment. C20 diacid = O=C(O)CCCCCCCCCCCCCCCCCCC(=O)*; γGlu = O=C(O)[C@H](CCC(=O)[*:2])N[*:1]; NMeI = CC[C@H](C)[C@H](NC)C(=O)O; Nle = CCCC[C@H](N)C(=O)O; AEEA = NCCOCCOCC(=O)O; Aib = CC(C)(N)C(=O)O

In one test the target is T1, hCRHR1 (Homo sapiens, UniProt P34998).
T1 sequence (P34998 24-415): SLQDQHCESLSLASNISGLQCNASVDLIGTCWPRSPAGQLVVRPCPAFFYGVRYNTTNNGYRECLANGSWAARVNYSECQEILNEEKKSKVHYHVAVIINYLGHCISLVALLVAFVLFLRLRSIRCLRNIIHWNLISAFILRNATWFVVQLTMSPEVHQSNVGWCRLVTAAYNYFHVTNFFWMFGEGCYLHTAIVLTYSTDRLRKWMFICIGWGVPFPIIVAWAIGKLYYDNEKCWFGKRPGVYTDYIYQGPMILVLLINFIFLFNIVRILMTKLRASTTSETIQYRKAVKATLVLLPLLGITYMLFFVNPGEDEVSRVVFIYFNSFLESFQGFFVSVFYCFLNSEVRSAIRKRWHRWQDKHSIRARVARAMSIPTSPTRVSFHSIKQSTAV
Put plainly: HTRF cAMP assay, determination of hCRHR1 potency (peptide libraries 5 conc., purified peptides 11 conc.). Type of test: cell-based. In a few lines: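 CHO-K1 cells stably expressing human CRHR1, thawed from frozen stocks just before use, were stimulated in suspension with agonist peptides. cAMP was measured by HTRF competitive immunoassay (cryptate anti-cAMP antibody vs d2-cAMP).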
On the technique in general: TR-FRET usually uses a lanthanide donor and a delayed reading to cut background.

For another test, the target named is T2, hCRHR2 (Homo sapiens, UniProt Q13324).
T2 sequence (Q13324 1-411): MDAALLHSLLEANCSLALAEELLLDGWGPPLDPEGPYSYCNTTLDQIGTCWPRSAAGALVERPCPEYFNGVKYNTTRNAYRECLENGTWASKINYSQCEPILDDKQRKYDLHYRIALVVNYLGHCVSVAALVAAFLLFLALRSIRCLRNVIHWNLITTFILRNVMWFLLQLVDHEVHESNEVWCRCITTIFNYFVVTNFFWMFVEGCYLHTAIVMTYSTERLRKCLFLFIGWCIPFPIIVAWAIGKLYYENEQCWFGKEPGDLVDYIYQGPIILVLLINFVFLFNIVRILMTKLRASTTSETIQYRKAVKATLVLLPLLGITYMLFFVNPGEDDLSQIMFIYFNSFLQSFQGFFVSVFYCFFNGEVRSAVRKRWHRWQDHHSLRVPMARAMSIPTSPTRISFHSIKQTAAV
Put plainly: HTRF cAMP assay, determination of hCRHR2 potency (peptide libraries 5 conc., purified peptides 11 conc.). Type of test: cell-based. In a few lines: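 Potency was read as cAMP accumulation in a stable CHO-K1 line expressing human CRHR2, used in suspension right after thawing. Detection relied on energy transfer from antibody-bound cryptate to d2-cAMP.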

Setting [1] is: library peptides, matched molecular pairs L vs Nle in position X^38, read-out: Potency hCRHR1 pEC50 (converted).
Where [2] appears, read: library peptides, matched molecular pairs L vs Nle in position X^38, read-out: Potency hCRHR2 pEC50 (converted).
The mark [3] stands for this setting: Table 4, library peptides having X^38 = Nle, read-out: hCRHR1 pEC50 (converted).
Where [4] appears, read: Table 4, library peptides having X^38 = Nle, read-out: hCRHR2 pEC50 (converted).

Regarding `CCCC[C@H](NC(=O)[C@@H](NC(=O)[C@H](CCC(=O)O)NC(=O)[C@H](C)NC(=O)[C@H](CC(N)=O)NC(=O)[C@@H](NC(=O)[C@H](CCCCNC(=O)COCCOCCNC(=O)COCCOCCNC(=O)CC[C@H](NC(=O)CC[C@H](NC(=O)CCCCCCCCCCCCCCCCCCC(=O)O)C(=O)O)C(=O)O)NC(=O)[C@H](C)NC(=O)[C@H](CCC(N)=O)NC(=O)[C@H](CCC(=O)O)NC(=O)[C@H](CCCNC(=N)N)NC(=O)[C@H](C)NC(=O)[C@H](C)NC(=O)[C@H](CCCNC(=N)N)NC(=O)[C@H](C)NC(=O)[C@H](CCCNC(=N)N)NC(=O)[C@H](C)NC(=O)[C@H](CCC(N)=O)NC(=O)[C@H](CO)NC(=O)[C@H](CC(C)C)NC(=O)[C@H](CC(C)C)NC(=O)[C@@H](NC(=O)[C@H](CCC(N)=O)NC(=O)[C@H](CC(C)C)NC(=O)[C@H](CC(C)C)NC(=O)CNC(=O)[C@@H](NC(=O)[C@@H]1CCCN1C(=O)[C@@H](NC(=O)[C@H](CC(=O)O)NC(=O)[C@H](CC(C)C)NC(=O)[C@H](CO)NC(=O)[C@H](CC(C)C)NC(=O)[C@@H](NC(=O)[C@@H](N)[C@@H](C)CC)C(C)C)C(C)C)[C@@H](C)CC)[C@@H](C)CC)[C@@H](C)O)[C@@H](C)CC)C(=O)N[C@@H](C)C(=O)N[C@@H](CCC(=O)O)C(=O)N[C@H](C(N)=O)[C@@H](C)CC` [compound 89] (H-IVLSLDVPIGLLQILLSQARARAAREQAK([AEEA-AEEA-γGlu-γGlu-C20 diacid])TNAEI[Nle]AEI-NH2), the pEC50 on hCRHR1 (Table 5, purified peptides, read-out: hCRHR1 EC50) was less than 5.30; at hCRHR2 (Table 5, purified peptides, read-out: hCRHR2 EC50), 9.26. For the same compound, the EC50 on hCRHR1 (setting [1]) is 398000 nM; on hCRHR2 (setting [2]), 0.398 nM. Moreover, the “Selectivity ratio (hCRHR1/ hCRHR2)” value at hCRHR2 (Table 5) is on record as more than 9091.
For the compound `CCCC[C@H](NC(=O)[C@@H](NC(=O)[C@H](CCC(=O)O)NC(=O)[C@H](C)NC(=O)[C@H](CC(N)=O)NC(=O)C(C)(C)NC(=O)[C@H](CCCCNC(=O)COCCOCCNC(=O)COCCOCCNC(=O)CC[C@H](NC(=O)CC[C@H](NC(=O)CCCCCCCCCCCCCCCCCCC(=O)O)C(=O)O)C(=O)O)NC(=O)[C@H](C)NC(=O)[C@H](CCC(N)=O)NC(=O)[C@H](CCC(=O)O)NC(=O)[C@H](CCCNC(=N)N)NC(=O)[C@H](C)NC(=O)[C@H](C)NC(=O)[C@H](CCCNC(=N)N)NC(=O)[C@H](C)NC(=O)[C@H](CCCNC(=N)N)NC(=O)[C@H](C)NC(=O)[C@H](CCC(N)=O)NC(=O)[C@H](CCCNC(=N)N)NC(=O)[C@H](CC(C)C)NC(=O)[C@H](CC(C)C)NC(=O)[C@@H](NC(=O)[C@H](CCC(N)=O)NC(=O)[C@H](CC(C)C)NC(=O)[C@H](CC(C)C)NC(=O)CNC(=O)[C@@H](NC(=O)[C@@H]1CCCN1C(=O)[C@@H](NC(=O)[C@H](CC(=O)O)NC(=O)[C@H](CC(C)C)NC(=O)[C@H](CO)NC(=O)[C@H](CC(C)C)NC(=O)[C@@H](NC(=O)[C@@H](NC)[C@@H](C)CC)C(C)C)C(C)C)[C@@H](C)CC)[C@@H](C)CC)[C@@H](C)CC)C(=O)N[C@@H](C)C(=O)N[C@@H](CCC(=O)O)C(=O)N[C@H](C(N)=O)C(C)C` [compound 232] (H-[NMeI]VLSLDVPIGLLQILLRQARARAAREQAK([AEEA-AEEA-γGlu-γGlu-C20 diacid])[Aib]NAEI[Nle]AEV-NH2), the EC50 at hCRHR1 (setting [3]) is 50100 nM; at hCRHR2 (setting [4]) it was 0.158 nM.
For the compound `CC[C@H](C)[C@H](N)C(=O)N[C@H](C(=O)N[C@@H](CC(C)C)C(=O)N[C@@H](CO)C(=O)N[C@@H](CC(C)C)C(=O)N[C@@H](CC(=O)O)C(=O)N[C@H](C(=O)N1CCC[C@H]1C(=O)N[C@H](C(=O)NCC(=O)N[C@@H](CC(C)C)C(=O)N[C@@H](CC(C)C)C(=O)N[C@@H](CCC(N)=O)C(=O)N[C@H](C(=O)N[C@@H](CC(C)C)C(=O)N[C@@H](CC(C)C)C(=O)N[C@@H](CCC(=O)O)C(=O)N[C@@H](CCC(N)=O)C(=O)N[C@@H](C)C(=O)N[C@@H](CCCNC(=N)N)C(=O)N[C@@H](C)C(=O)N[C@@H](CCCNC(=N)N)C(=O)N[C@H](C(=O)N[C@@H](C)C(=O)N[C@@H](CCCNC(=N)N)C(=O)N[C@@H](CCC(=O)O)C(=O)N[C@@H](CCC(N)=O)C(=O)N[C@@H](C)C(=O)N[C@@H](CCCCNC(=O)COCCOCCNC(=O)COCCOCCNC(=O)CC[C@H](NC(=O)CC[C@H](NC(=O)CCCCCCCCCCCCCCCCCCC(=O)O)C(=O)O)C(=O)O)C(=O)N[C@H](C(=O)N[C@@H](CC(N)=O)C(=O)N[C@@H](C)C(=O)N[C@@H](CCC(=O)O)C(=O)N[C@H](C(=O)N[C@@H](CC(C)C)C(=O)N[C@@H](C)C(=O)N[C@@H](CCC(=O)O)C(=O)N[C@H](C(N)=O)C(C)C)[C@@H](C)CC)[C@@H](C)O)C(C)C)[C@@H](C)CC)[C@@H](C)CC)C(C)C)C(C)C` [compound 90] (H-IVLSLDVPIGLLQILLEQARARVAREQAK([AEEA-AEEA-γGlu-γGlu-C20 diacid])TNAEILAEV-NH2), the EC50 was 20000 nM on hCRHR1 (setting [1]) and 1 nM at hCRHR2 (setting [2]).
As for `CCCC[C@H](NC(=O)[C@@H](NC(=O)[C@H](CCC(=O)O)NC(=O)C(C)(C)NC(=O)[C@H](CC(N)=O)NC(=O)[C@@H](NC(=O)[C@H](CCCCNC(=O)COCCOCCNC(=O)COCCOCCNC(=O)CC[C@H](NC(=O)CC[C@H](NC(=O)CCCCCCCCCCCCCCCCCCC(=O)O)C(=O)O)C(=O)O)NC(=O)[C@H](C)NC(=O)[C@H](CCC(N)=O)NC(=O)[C@H](CCC(=O)O)NC(=O)[C@H](CCCNC(=N)N)NC(=O)[C@H](C)NC(=O)[C@H](C)NC(=O)[C@H](CCCNC(=N)N)NC(=O)[C@H](C)NC(=O)[C@H](CCCNC(=N)N)NC(=O)[C@H](C)NC(=O)[C@H](CCC(N)=O)NC(=O)[C@H](Cc1c[nH]cn1)NC(=O)[C@H](CC(C)C)NC(=O)[C@H](CC(C)C)NC(=O)[C@@H](NC(=O)[C@H](CCC(N)=O)NC(=O)[C@H](CC(C)C)NC(=O)[C@H](CC(C)C)NC(=O)CNC(=O)[C@@H](NC(=O)[C@@H]1CCCN1C(=O)[C@@H](NC(=O)[C@H](CC(=O)O)NC(=O)[C@H](CC(C)C)NC(=O)[C@H](CO)NC(=O)[C@H](CC(C)C)NC(=O)[C@@H](NC(=O)[C@@H](NC)[C@@H](C)CC)C(C)C)C(C)C)[C@@H](C)CC)[C@@H](C)CC)[C@@H](C)O)[C@@H](C)CC)C(=O)N[C@@H](C)C(=O)N[C@@H](CCC(=O)O)C(=O)N[C@H](C(N)=O)C(C)C` [compound 207] (H-[NMeI]VLSLDVPIGLLQILLHQARARAAREQAK([AEEA-AEEA-γGlu-γGlu-C20 diacid])TN[Aib]EI[Nle]AEV-NH2), the values for the EC50 on hCRHR1 (setting [3]) and on hCRHR2 (setting [4]) were 1000 nM and 0.0398 nM, respectively.
Take `CC[C@H](C)[C@H](N)C(=O)N[C@H](C(=O)N[C@@H](CC(C)C)C(=O)N[C@@H](CO)C(=O)N[C@@H](CC(C)C)C(=O)N[C@@H](CC(=O)O)C(=O)N[C@H](C(=O)N1CCC[C@H]1C(=O)N[C@H](C(=O)NCC(=O)N[C@@H](CC(C)C)C(=O)N[C@@H](CC(C)C)C(=O)N[C@@H](CCC(N)=O)C(=O)N[C@H](C(=O)N[C@@H](CC(C)C)C(=O)N[C@@H](CC(C)C)C(=O)N[C@@H](CCC(=O)O)C(=O)N[C@@H](CCC(N)=O)C(=O)N[C@@H](C)C(=O)N[C@@H](CCCNC(=N)N)C(=O)N[C@@H](C)C(=O)N[C@@H](CCCNC(=N)N)C(=O)N[C@@H](CCC(N)=O)C(=O)N[C@@H](C)C(=O)N[C@@H](CCCNC(=N)N)C(=O)N[C@@H](CCC(=O)O)C(=O)N[C@@H](CCC(N)=O)C(=O)N[C@@H](C)C(=O)N[C@@H](CCCCNC(=O)COCCOCCNC(=O)COCCOCCNC(=O)CC[C@H](NC(=O)CC[C@H](NC(=O)CCCCCCCCCCCCCCCCCCC(=O)O)C(=O)O)C(=O)O)C(=O)N[C@H](C(=O)N[C@@H](CC(N)=O)C(=O)N[C@@H](C)C(=O)N[C@@H](CCC(=O)O)C(=O)N[C@H](C(=O)N[C@@H](CC(C)C)C(=O)N[C@@H](C)C(=O)N[C@@H](CCC(=O)O)C(=O)N[C@H](C(N)=O)C(C)C)[C@@H](C)CC)[C@@H](C)O)[C@@H](C)CC)[C@@H](C)CC)C(C)C)C(C)C` [compound 52] (H-IVLSLDVPIGLLQILLEQARARQAREQAK([AEEA-AEEA-γGlu-γGlu-C20 diacid])TNAEILAEV-NH2): the EC50 was 1580 nM on hCRHR1 (setting [1]) and 0.631 nM on hCRHR2 (setting [2]).

As usually defined, the pEC50 is the negative decadic logarithm of the EC50, by convention in mol/L.
